48 compounds from patent US20240116933A1, “INDAZOLE AND PYRAZOLOPYRIDINE COMPOUNDS AS INHIBITORS OF NLRP3 INFLAMMASOME” (BioAge Labs, Inc., priority 2022, published 2024) can be followed below.

A value given as a limit tells only on which side of the number the result lay.

T1 sequence (Q96P20 whole entry): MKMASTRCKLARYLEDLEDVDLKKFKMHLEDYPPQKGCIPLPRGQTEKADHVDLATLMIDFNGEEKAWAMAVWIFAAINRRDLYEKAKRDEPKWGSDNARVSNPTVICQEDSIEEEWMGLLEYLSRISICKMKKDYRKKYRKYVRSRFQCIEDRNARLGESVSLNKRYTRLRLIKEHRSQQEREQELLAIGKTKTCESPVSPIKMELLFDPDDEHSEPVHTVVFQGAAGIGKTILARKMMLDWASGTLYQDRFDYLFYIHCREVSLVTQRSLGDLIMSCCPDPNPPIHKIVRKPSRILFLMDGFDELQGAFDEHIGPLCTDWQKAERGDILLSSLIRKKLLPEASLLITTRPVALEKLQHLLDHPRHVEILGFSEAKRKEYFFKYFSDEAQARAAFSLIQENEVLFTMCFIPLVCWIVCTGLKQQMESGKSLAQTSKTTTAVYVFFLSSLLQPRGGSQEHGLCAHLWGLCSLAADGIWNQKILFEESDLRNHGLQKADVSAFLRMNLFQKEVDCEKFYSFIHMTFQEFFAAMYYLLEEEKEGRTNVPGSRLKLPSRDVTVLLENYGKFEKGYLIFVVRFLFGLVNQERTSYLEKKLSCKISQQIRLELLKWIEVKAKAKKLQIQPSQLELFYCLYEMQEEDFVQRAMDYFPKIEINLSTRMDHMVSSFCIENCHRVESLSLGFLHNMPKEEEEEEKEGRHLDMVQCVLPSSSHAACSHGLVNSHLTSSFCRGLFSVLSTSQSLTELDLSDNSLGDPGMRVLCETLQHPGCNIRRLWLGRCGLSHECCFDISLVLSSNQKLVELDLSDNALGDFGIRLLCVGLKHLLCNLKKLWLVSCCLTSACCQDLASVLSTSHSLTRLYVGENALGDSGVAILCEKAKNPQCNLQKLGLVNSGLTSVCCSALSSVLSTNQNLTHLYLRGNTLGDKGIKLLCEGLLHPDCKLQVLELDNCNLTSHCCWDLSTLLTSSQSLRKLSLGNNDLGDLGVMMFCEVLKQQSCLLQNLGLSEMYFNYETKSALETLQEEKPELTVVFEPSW

This experiment concerns the target T1, NLRP3 inflammasome (Homo sapiens, UniProt Q96P20).
T1 construct: endogenous in cells; host or cells: THP-1 cells (PMA-differentiated, LPS-primed, nigericin-stimulated)
Put plainly: THP-1 Cell-Based NLRP3 Activation Assay. As to conditions: THP-1 cells, PMA, 100 ng/mL LPS 3 hrs, 30 min pre-incubation with test compound, 10 μM nigericin 1 hr. The method, then: THP-1 cells are cultured in complete media (CM) until they reach logarithmic growth and achieve a viability >90%. CM is composed of RPMI-1640 (+Glutamax)/10% fetal bovine serum/55 μM β-mercaptoethanol/pen/strep. Cells are spun down and resuspended to 1,000,000 cells/mL in CM containing either 20 nM or 500 nM PMA. 150,000 cells […] are then added to each well of a 96-well TC plate and incubated for either 24 hr or 3 hr, respectively, in a standard cell culture incubator (37° C.; 5% CO2). After this incubation, the plate is tilted and media carefully removed. 200 μL of CM containing 100 ng/mL LPS is then added to the wells and the cells incubated an additional 3 hrs. The media is again removed and replaced with Opti-Mem medium containing pre-determined dilutions of test compounds in replicate wells. After a 30 min pre-incubation with test compound, 10 μM nigericin (final concentration) in Opti-Mem medium with the corresponding concentration of compound is added to the wells for an additional 1 hr. Positive control wells contain 10 μM nigericin in Opti-Mem in the absence of test compound, while negative control wells contain Opti-Mem only. […] Once supernatants are removed, the relative viability of adherent cells in the 96-well TC plate are determined using a CellTiter-Glo® luminescent cell viability assay (Promega).
With `CCOc1cc(C(=O)N(C)[C@H](C)c2ccc(CF)c3cn[nH]c23)ccc1-c1cccc(F)c1` (single isomer, unassigned) [Compound 169], the IC50 was less than 10 µM.
On to `CCOc1cc(C(=O)N(C)[C@H](C)c2c(O)ccc3cn[nH]c23)ccc1-c1cccc(F)c1` (single isomer, unassigned) [Compound 184], for which the IC50 was less than 10 µM.
The compound `CCOc1cc(C(=O)N(C)Cc2cnc(CF)c3cn[nH]c23)ccc1C#CC1CC1` [Compound 001] had an IC50 of less than 1 µM.
`CCOc1cc(C(=O)N(C)Cc2cc(OC(C)=O)cc3cn[nH]c23)ccc1-c1cccc(F)c1` [Compound 007] had an IC50 of less than 1 µM.
With `CCOc1cc(C(=O)N(C)Cc2cc(C(=O)OC)cc3cn[nH]c23)ccc1-c1cccc(F)c1` [Compound 008] the figure was less than 10 µM.
In turn, `CCOc1cc(C(=O)N(C)Cc2c(C3CC3)ncc3cn[nH]c23)ccc1-c1cccc(F)c1` [Compound 011] returned an IC50 of less than 1 µM.
`CCOc1cc(C(=O)N(C)Cc2cc(O)c(C)c3cn[nH]c23)ccc1-c1cccc(F)c1` [Compound 015] showed an IC50 of less than 1 µM.
Regarding `CCOc1cc(C(=O)N(C)Cc2cnc(C(C)O)c3cn[nH]c23)ccc1-c1cc(F)cc(F)c1` (stereo not drawn) [Compound 026], the IC50 was less than 1 µM.
As to `CCOc1cc(C(=O)N(C)Cc2cnc(C(C)O)c3cn[nH]c23)ccc1-c1cccc(C#N)c1` (stereo not drawn) [Compound 029], the IC50 was less than 1 µM.
In turn, `CCOc1cc(C(=O)N(C)Cc2cnc(C(C)O)c3cn[nH]c23)ccc1-c1cccc(Cl)c1` (stereo not drawn) [Compound 030] yielded an IC50 of less than 1 µM.
Turning to `CCOc1cc(C(=O)N(C)Cc2cnc(C(C)O)c3cn[nH]c23)ccc1-c1ccccc1` (stereo not drawn) [Compound 031], the IC50 is less than 1 µM.
Compound `CCN(Cc1cnc(C)c2cn[nH]c12)C(=O)c1cc(F)c(-c2cccc(Cl)c2)c(OC2CC2)c1` [Compound 032] registered an IC50 of less than 1 µM.
With `Cc1ncc([C@@H](C)N(C)C(=O)c2cc(F)c(-c3cccc(F)c3)c(OC3CC3)c2)c2[nH]ncc12` [Compound 034] the figure was less than 10 µM; with `Cc1ncc([C@H](C)N(C)C(=O)c2cc(F)c(-c3cccc(F)c3)c(OC3CC3)c2)c2[nH]ncc12` [Compound 035], less than 1 µM.
For `CCOc1cc(C(=O)N(C)Cc2c(O)ccc3cn[nH]c23)ccc1-c1cccc(F)c1` [Compound 036], the IC50 is less than 1 µM.
In turn, `CCOc1cc(C(=O)N(C)Cc2c(C)nc(CO)c3cn[nH]c23)ccc1-c1cccc(F)c1` [Compound 037] gave an IC50 of less than 1 µM.
The compound `Cc1ncc(CN(C)C(=O)c2cc(F)c(-c3cccc(F)c3)c(OC3CC3)c2)c2[nH]ncc12` [Compound 038] displayed an IC50 of less than 1 µM.
The compound `CCOc1cc(C(=O)N(C)Cc2c(CO)ncc3cn[nH]c23)ccc1-c1cccc(F)c1` [Compound 039] yielded an IC50 of less than 1 µM.
Regarding `Cc1nc(CO)c2cn[nH]c2c1CN(C)C(=O)c1cc(F)c(-c2cccc(Cl)c2)c(OC2CC2)c1` [Compound 040], the IC50 is less than 1 µM.
As to `Cc1nc(CO)c2cn[nH]c2c1CN(C)C(=O)c1ccc(-c2cccc(Cl)c2)c(OC2CC2)c1` [Compound 041], the IC50 was less than 1 µM.
With `CCOc1cc(C(=O)N(C)[C@@H](C)c2cc(F)cc3cn[nH]c23)ccc1-c1cccc(F)c1` [Compound 042] the figure was less than 1 µM; with `CCOc1cc(C(=O)N(C)[C@H](C)c2cc(F)cc3cn[nH]c23)ccc1-c1cccc(F)c1` [Compound 043], less than 50 µM.
Next, `CCOc1cc(C(=O)N(C)[C@H](C)c2c(C)ncc3cn[nH]c23)ccc1-c1cccc(F)c1` [Compound 044]: less than 50 µM; `CCOc1cc(C(=O)N(C)[C@@H](C)c2c(C)ncc3cn[nH]c23)ccc1-c1cccc(F)c1` [Compound 045]: less than 10 µM.
`CCOc1nc(C(=O)N(C)Cc2cnc(CF)c3cn[nH]c23)ccc1-c1cccc(C(F)(F)F)c1` [Compound 046] gave an IC50 of less than 1 µM.
`CN(Cc1cnc(CO)c2cn[nH]c12)C(=O)c1cc(F)c(-c2cccc(Cl)c2)c(OC2CC2)c1` [Compound 047] displayed an IC50 of less than 1 µM.
As for `Cc1ncc(CN(C)C(=O)c2cc(F)c(-c3cccc(Cl)c3)c(OC3CC3)c2)c2[nH]ncc12` [Compound 048], the IC50 is less than 1 µM.
`CCOc1cc(C(=O)N(C)[C@@H](C)c2cnc(C)c3cn[nH]c23)ccc1-c1cccc(F)c1` [Compound 049] showed an IC50 of less than 50 µM.
`CCOc1cc(C(=O)N(C)[C@H](C)c2cnc(C)c3cn[nH]c23)ccc1-c1cccc(F)c1` [Compound 050] gave an IC50 of less than 1 µM.
The compound `C[C@@H](c1cncc2cn[nH]c12)N(C)C(=O)c1ccc(-c2cccc(F)c2)c(OC2CC2)c1` [Compound 052] had an IC50 of less than 1 µM.
With `CCOc1cc(C(=O)N(C)Cc2c(C)nc(C)c3cn[nH]c23)ccc1-c1cccc(F)c1` [Compound 053] the figure was less than 1 µM.
In turn, `CCOc1cc(C(=O)N(C)C(C)c2cnc(CF)c3cn[nH]c23)ccc1-c1cccc(F)c1` (stereo not drawn) [Compound 055] displayed an IC50 of less than 1 µM.
`CCOc1nc(C(=O)N(C)[C@@H](C)c2cncc3cn[nH]c23)ccc1-c1cccc(F)c1` [Compound 056] registered a concentration for half-maximal inhibition (IC50) of less than 1 µM.
Take `CCOc1nc(C(=O)N(C)[C@H](C)c2cncc3cn[nH]c23)ccc1-c1cccc(F)c1` [Compound 057]: the IC50 is less than 50 µM.
Next, `CCOc1cc(C(=O)N(C)[C@H](C)c2cccc3cn[nH]c23)ccc1-c1cccc(F)c1` [Compound 058]: less than 50 µM.
Next, `CCOc1cc(C(=O)N(C)[C@@H](C)c2cccc3cn[nH]c23)ccc1-c1cccc(F)c1` [Compound 059]: less than 1 µM; `Cc1ncc2cn[nH]c2c1CN(C)C(=O)c1cc(F)c(-c2cccc(F)c2)c(OC2CC2)c1` [Compound 062]: less than 1 µM.
With `Cc1ncc(CN(C)C(=O)c2cc(F)c(-c3ccccc3)c(OC3CC3)c2)c2[nH]ncc12` [Compound 064] the figure was less than 1 µM; with `Cc1ncc(CN(C)C(=O)c2cc(F)c(-c3cccc(C#N)c3)c(OC3CC3)c2)c2[nH]ncc12` [Compound 065], less than 1 µM; with `CCOc1cc(C(=O)N(C)Cc2ccc(CO)c3cn[nH]c23)ccc1-c1cccc(F)c1` [Compound 066], less than 1 µM.
The compound `CCOc1cc(C(=O)N(CC)Cc2cnc(C(C)O)c3cn[nH]c23)ccc1-c1cccc(F)c1` (stereo not drawn) [Compound 067] had an IC50 of less than 1 µM.
In the case of `Cc1ncc2cn[nH]c2c1CN(C)C(=O)c1cc(F)c(-c2cccc(Cl)c2)c(OC2CC2)c1` [Compound 068], the IC50 was less than 1 µM.
Regarding `CCOc1cc(C(=O)N(C)Cc2cc(CO)cc3cn[nH]c23)ccc1-c1cccc(F)c1` [Compound 069], the IC50 was less than 1 µM.
`CCOc1cc(C(=O)N(C)Cc2cnc(C(C)F)c3cn[nH]c23)ccc1-c1cccc(F)c1` (stereo not drawn) [Compound 070]: the IC50 is less than 1 µM.
Regarding `CN(Cc1cnc(CF)c2cn[nH]c12)C(=O)c1cc(F)c(-c2cccc(Cl)c2)c(OC2CC2)c1` [Compound 071], the IC50 is less than 1 µM.
On to `CCOc1cc(C(=O)N(C)Cc2cnc(C(C)O)c3cn[nH]c23)cc(F)c1-c1cc(C#N)cs1` (stereo not drawn) [Compound 072], for which the IC50 is less than 10 µM.
Consider `CCOc1cc(C(=O)N(C)Cc2cnc(CO)c3cn[nH]c23)cc(F)c1-c1cc(C#N)cs1` [Compound 073], for which the IC50 is less than 1 µM.
With `CCOc1nc(C(=O)N(C)[C@@H](C)c2ccc(CF)c3cn[nH]c23)ccc1-c1cccc(F)c1` [Compound 074], the IC50 is less than 50 µM.
